Data: patent US5508277A, “Bicyclic pyrimidines” (Adir Et Compagnie, priority 1992, dated 1996)

What was measured:
[1] = tested on: P388/VCR (murine leukaemia resistant to vincristine); assay: Increase in the anti-tumour activity of vincristine in vivo, compounds administered p.o.; set-up: species or system mice (female B6D2F1); conditions: 100 mg/kg p.o., days 1, 2, 3 and 4; + vincristine 0.25 mg/kg i.p.
Excerpt: (§1) The sensitive parent line P388 (murine leukaemia) and the sub-line resistant to vincristine, P388/VCR, were supplied by NCI (Frederick, USA). The tumour cells (10^6 cells) were inoculated on day 0 into the intraperitoneal cavity of female B6D2F1 mice (Iffa Credo, France) weighing from 18 to 20 g (groups of 8 to 10 animals). In the case of i.p. administration of the compounds to be tested, the animals received on days 1, 5 and 9:
In the case of p.o. administration of the compounds to be tested, the animals received on days 1, 2, 3 and 4:
an administration by the oral route of 100 mg/kg of the compound of the present invention to be tested, then
30 to 60 minutes later, an administration by the i.p. route of 0.25 mg/kg of vincristine.
The anti-tumour activity is expressed as follows: [formula]
The activity of the reversing compound is expressed as T/V: [formula]

[2] = tested on: P388/VCR (murine leukaemia resistant to vincristine); assay: Increase in the anti-tumour activity of vincristine in vivo, compounds administered i.p.; set-up: species or system mice (female B6D2F1); conditions: for increase in anti-tumour activity of vincristine (in words): administered i.p., resistant tumour
Protocol: as §1, with “9: administration by the i.p. route of 25, 50 or 75 mg/kg of the compound of the present invention to be tested, then 30 to 60 minutes later, an administration by the i.p. route of 0.50 mg/kg of vincristine (used as a reference anti-tumour agent). The anti-tumour activity is expressed as follows: [formula] The activity of the reversing compound is expressed as T/V: [formula]” for “9:”

[3] = tested on: DC-3F/AD cells; assay: Cytotoxicity of actinomycin D, reversal of MDR (reversion factor), Microculture Tetrazolium Assay; format: cell-based, Chinese hamster; conditions: compound at 5 μM, with actinomycin D, 4 days
Protocol: Two resistant cell lines were used:
The cells are distributed on microplates and exposed to the cytotoxic compound (actinomycin D or adriamycin) at 9 concentrations (2 by 2 series dilutions). The compounds tested for their capacity to reverse MDR are added at the same time as the cytotoxic agent. The cells are then incubated for 4 days. […] The results are expressed as a reversion factor (RF): [formula]

[4] = 25 mg/kg i.p., days 1, 5 and 9, + vincristine 0.50 mg/kg i.p.
[5] = 50 mg/kg i.p., days 1, 5 and 9, + vincristine 0.50 mg/kg i.p.
[6] = 75 mg/kg i.p., days 1, 5 and 9, + vincristine 0.50 mg/kg i.p.
[7] = VCR only, 0.50 mg/kg i.p., no compound

C=CCNc1nc(N2CCC(NC3c4ccccc4N(C)S(=O)(=O)c4cc(Cl)ccc43)CC2)nc2c1ncn2CC=C (single isomer, unassigned) [Example 15, (+)--(R)-- or --(S)-9-allyl-6-allylamino-2-{4-[(3-chloro-6-methyl-5,5-dioxo-6,11-dihydrodibenzo[c,f][1,2]thiazepin-11-yl)amino]piperidino)purine]
T/C [1]: 157

C=CCNc1nc(N2CCC(NCC3c4ccccc4CCc4ccccc43)CC2)nc2c1ncn2CC=C [Example 1, 9-allyl-6-allylamino-2-{4-[(10,11-dihydro-5H-dibenzo-[a,d]cyclohepten-5-yl)methylamino]piperidino}purine]
T/C % [2, 4]: 215%
T/V [2, 4]: 1.54
T/C % [2, 5]: 239%
T/V [2, 5]: 1.71
T/C % [2, 6]: 176%
T/V [2, 6]: 1.26
increase in anti-tumour activity of vincristine (in words) [2]: substantially increase the anti-tumour activity of vincristine against a resistant tumour
T/C [1]: 209
REVERSION FACTOR 5 μM DC-3F/AD [3]: 5173

C=CCNc1nc(N2CCC(NCC3c4ccccc4CCc4ccccc43)CC2)c2ncn(CC=C)c2n1 [Example 2, 9-allyl-2-allylamino-6-{4-[(10,11-dihydro-5H-dibenzo-[a,d]cyclohepten-5-yl)methylamino]piperidino}purine]
T/C % [2, 4]: 192%
T/V [2, 4]: 1.37
T/C % [2, 5]: 224%
T/V [2, 5]: 1.60
T/C % [2, 6]: 235%
T/V [2, 6]: 1.68
increase in anti-tumour activity of vincristine (in words) [2]: substantially increase the anti-tumour activity of vincristine against a resistant tumour
T/C [1]: 172
REVERSION FACTOR 5 μM DC-3F/AD [3]: 3368

C=CCNc1nc(N2CCC(NCC(c3ccc(F)cc3)c3ccc(F)cc3)CC2)nc2c1ncn2CC=C [Example 3, 9-allyl-6-allylamino-2-{4-[2,2-bis(4-fluorophenyl)-ethylamino]piperidino}purine]
T/C [1]: 203

C=CCNc1nc(N2CCC(NCC3c4ccccc4COc4ccccc43)CC2)nc2c1ncn2CC=C (stereo not shown) [Example 5, 9-allyl-6-allylamino-2-{4-[(6,11-dihydrodibenzo[b,e]-oxepin-11-yl)methylamino]piperidino}purine]
T/C [1]: 196

C=CCNc1nc(N2CCC(NCC3c4ccccc4C=Cc4ccccc43)CC2)nc2c1ncn2CC=C [Example 6, 9-allyl-6-allylamino-2-{4-[(5H-dibenzo[a,d]cyclohepten-5-yl)methylamino]piperidino}purine]
T/C [1]: 188

C=CCNc1nc(N2CCC(NCC3c4ccccc4CCc4ccccc43)CC2)nc2c1cnn2CC=C [Example 9, 1-allyl-4-allylamino-6-{4-[(10,11-dihydro-5H-dibenzo[a,d]cyclohepten-5-yl)methylamino]piperidino}pyrazolo[3,4-d]pyrimidine]
T/C [1]: 161

C=CCNc1nc(N2CCC(NCC(c3ccccc3)c3ccccc3)CC2)nc2c1ncn2CC=C [Example 12, 9-allyl-6-allylamino-2-{4-[(2,2-diphenylethyl)amino]piperidino}purine]
T/C [1]: 192

C=CCNc1nc(N2CCC(NCC3c4ccccc4CCc4cc(OC)ccc43)CC2)nc2c1ncn2CC=C (stereo not shown) [Example 14, 9-allyl-6-allylamino-2-{4-[(2-methoxy-10,11-dihydro-5H-dibenzo[a,d]cyclohepten-5-yl)methylamino]piperidino}purine]
T/C [1]: 202

CC[C@]1(O)C[C@H]2CN(CCc3c([nH]c4ccccc34)[C@@](C(=O)OC)(c3cc4c(cc3OC)N(C=O)[C@H]3[C@@](O)(C(=O)OC)[C@H](OC(C)=O)[C@]5(CC)C=CCN6CC[C@]43[C@@H]65)C2)C1 [VCR, vincristine, reference compound]
T/C % [2, 7]: 140%
T/V [2, 7]: 1

COc1ccc(CCN(C)CCCC(C#N)(c2ccc(OC)c(OC)c2)C(C)C)cc1OC (stereo not shown) [verapamil, reference compound]
REVERSION FACTOR 5 μM DC-3F/AD [3]: 3
